Experimental data from patent US8957056B2, “Migrastatin analogs in the treatment of cancer” (Sloan-Kettering Instiute for Cancer Research, priority 2004, dated 2015).
Read-outs that look alike come from different tables or passages of the source.

Assays:
[1] = Mouse blood plasma stability
Protocol: The biological evaluation of the compounds (in terms of their ability to inhibit cell migration) was accomplished in a Boyden chamber cell migration assay. In this assay, mouse breast tumor cells (4T1 cells) or endothelial cells (HUVECs) are seeded on the upper chamber of a transwell insert. Growth factor-containing serum is added to the lower chamber.
In anticipation of subsequent in vivo evaluation of these compounds and others, preliminary metabolic stability studies were carried out. […] As a test of the ‘deactivation hypothesis’, the hydrolysis product of macrolactone 48 was prepared (Scheme 27) and tested for its activity against tumor cell migration.

[2] = tested on: mouse breast tumor cells (4T1 cells); experiment: Boyden chamber cell migration assay, 4T1; format: cell-based; conditions: for IC50: 4T1 tumor cells, 6-8 hours, read-out: IC50 value, chamber cell migration assay; for inhibitory activity on tumor cell migration: 4T1 chamber assay
HUVEC = experiment: Tube formation assay; format: cell-based, human; conditions: HUVEC on matrigel, 16-18 h, tested concentrations 200, 100, 50, 25, 10 μM
Protocol: A protocol was designed based on the instructions from the provider (BD Bioscience, San Jose, Calif.). Briefly, wells of a 48 well culture dish were covert with 150 μL matrigel and the matrigel was gelatinized for 30 min at 37° C. A 80-90% confluent HUVEC (BD Bioscience, San Jose, Calif.) culture was trypsin treated, the detached cells were collected by centrifugation and resuspended in EGM-2 media (BD Bioscience, San Jose, Calif.). Cell concentration was adjusted to 100.000 cells/mL. 400 μL of the cell suspension were filled in the matrigel coated wells, and a solution of the inhibitor was added to the intended final concentration. The plates were incubated at 37° C. with 5% CO2 for 16-18 h. Media was removed, and the matrigel surface was washed twice with 500 μL PBS before cells were labeled with 250 μL 8 μM Calcein AM (Pierce, Rockford, Ill.) in PBS for 30 min at 37° C. After two additional washing steps (500 μL PBS) cells were visualized under an inverted microscope. Fluorescence was excited at 488 nm and recorded at 538 nm. The minimum effect concentration was defined as the minimal inhibitor concentration that caused a definite disturbance of the complexity of the formed tube network.

[3] = tested on: adherent cells (e.g. KYSE-520 cells); experiment: Wound healing (scratch) assay, preliminary (Table 2); format: cell-based; conditions: 28 to 30 h, tested concentrations 200, 100, 50, 25, 10 μM
Protocol: The wound healing assay was performed based on the method described by Nakae et al. (Nakae et al., J. Antibiotics (2000), 53, 1130-1136). Briefly, adherent cells were grown in a suitable media to confluence (e.g. KYSE-520 cells in RPMI-1640 with 10% FBS). Cells were starved for 24 h in serum free media A scratch (ca. 0.5 mm) was applied and the cell layer was washed twice with PBS after removal of the media. Fresh, serum free media with the test compound at the desired concentration was added and the cells were incubated for 28 to 30 h at 37° C., 5% CO2. The scratch size was compared to that observed for cells exposed to 100 μM Migrastatin. Test compounds associated with a scratch size equal to or larger than that observed for cells exposed to 100 μM Migrastatin were deemed to have cell migration inhibitory activity at least equal to Migrastatin.

[4] = rcm bond, toluene, 0.25 h
[5] = tested on: mouse breast tumor cells (4T1 cells); conditions: chamber assay with mouse breast tumor cells; reported in WO 2004/087672; cited from earlier work

Structure (SMILES): COC1C=CCCCCC(=O)OC(C(C)C(=O)CCCC2CC(=O)NC(=O)C2)C(C)=CC(C)C1O (stereo not shown) [Compound 41, 2,3-Dihydromigrastatin]
- metabolic stability in mouse blood plasma ([1]; mouse, plasma): completely inert toward lactone opening
- IC50 [2]: 10 µM
- Minimum effect concentration (HUVEC): 50 µM
- Minimum effect concentration [3]: 25 µM

Structure (SMILES): CO[C@H]1/C=C/CCCCC(=O)OC/C(C)=C\[C@@H](C)[C@@H]1OC(C)=O [Compound 49, Acetylated Macrolactone]
- inhibitory activity on tumor cell migration [2]: reduced by roughly an order of magnitude

Structure (SMILES): CO[C@H]1C=CCC/C=C/C(=O)O[C@H]([C@H](C)C(=O)CCCC2CC(=O)NC(=O)C2)/C(C)=C\[C@@H](C)[C@@H]1O[Si](C)(C)C(C)(C)C
- ring closure, yield of all isomers ([4]; from C=CCC/C=C/C(=O)O[C@@H](/C(C)=C\[C@@H](C)[C@H](O[Si](C)(C)C(C)(C)C)[C@H](C=C)OC)[C@H](C)C(=O)CCCC1CC(=O)NC(=O)C1, Grubbs II, 0.46 mM, 111.0 °C): 69%

Structure (SMILES): COC1C=CCCC=CC(=O)OC(C(C)C(=O)CCCC2CC(=O)N(C)C(=O)C2)C(C)=CC(C)C1O (stereo not shown) [N-Methyl-migrastatin]
- Minimum effect concentration (HUVEC): 200 µM
- Minimum effect concentration [3]: 100 µM

Structure (SMILES): CO[C@H]1C=CCCCCC(=O)O[C@H]([C@H](C)C(=O)CCCC2CC(=O)NC(=O)C2)/C(C)=C\[C@@H](C)[C@@H]1O[Si](C)(C)C(C)(C)C
- ring closure, yield of all isomers ([4]; from C=CCCCCC(=O)O[C@@H](/C(C)=C\[C@@H](C)[C@H](O[Si](C)(C)C(C)(C)C)[C@H](C=C)OC)[C@H](C)C(=O)CCCC1CC(=O)NC(=O)C1, Grubbs II, 0.48 mM, 111.0 °C): 79%

Structure (SMILES): CO[C@H]1C=CCC/C=C/C(=O)OC/C(C)=C\[C@@H](C)[C@@H]1O[Si](C)(C)C(C)(C)C
- ring closure, yield of all isomers ([4]; from C=CCC/C=C/C(=O)OC/C(C)=C\[C@@H](C)[C@H](O[Si](C)(C)C(C)(C)C)[C@H](C=C)OC, Grubbs II, 0.664 mM, 111.0 °C): 55%

Structure (SMILES): CO[C@H]1/C=C/CCCCC(O)CC/C(C)=C\[C@@H](C)[C@@H]1O (stereo partly shown) [Compound 69, Macrocyclic Secondary Alcohol]
- ability to inhibit tumor cell migration [5]: rather weak migration inhibitors

Structure (SMILES): CO[C@@H](/C=C/CCCCC(=O)O)[C@@H](O)[C@H](C)/C=C(/C)CO [Compound 51, Hydrolyzed Core]
- IC50 ([2]; Mus musculus): 0.378 µM

Structure (SMILES): CO[C@H]1/C=C/CC/C=C/C(=O)OC/C(C)=C\[C@@H](C)[C@@H]1O [Compound 45, Migrastatin Core]
- metabolic stability in mouse blood plasma ([1]; test period one hour): hydrolyzed rapidly
- Minimum effect concentration (HUVEC): 10 µM

Structure (SMILES): CO[C@H]1C=CCCCCC(=O)CC/C(C)=C\[C@@H](C)[C@@H]1O[Si](C)(C)C(C)(C)C
- ring closure, yield of all isomers ([4]; from C=CCCCCC(=O)CC/C(C)=C\[C@@H](C)[C@H](O[Si](C)(C)C(C)(C)C)[C@H](C=C)OC, Grubbs-II catalyst, 0.508 mM, 110.0 °C): 81%

Structure (SMILES): CO[C@H]1/C=C/CCCCC(C)(O)CC/C(C)=C\[C@@H](C)[C@@H]1O (stereo partly shown) [Compound 70, Macrocyclic Tertiary Alcohol]
- ability to inhibit tumor cell migration [5]: rather weak migration inhibitors

Structure (SMILES): COC1C=CCCCCC(=O)OC(C(C)C)C(C)=CC(C)C1O [Compound 68, (R)-Isopropyl Macrolactone]
- metabolic stability in mouse blood plasma ([1]; mouse, plasma): no sign of degradation
- inhibitory activity on tumor cell migration [2]: only very weak effects on tumor cell migration

Structure (SMILES): COC1C=CCCCCC(=O)OC(C(C)C(=O)CCCC2CC(=O)N(C)C(=O)C2)C(C)=CC(C)C1O (stereo not shown) [Compound 42, N-Methyl-2,3-Dihydromigrastatin]
- metabolic stability in mouse blood plasma ([1]; mouse, plasma): completely inert toward lactone opening
- IC50 [2]: 7 µM

Structure (SMILES): CO[C@H]1/C=C/CCCCC(O)(C(F)(F)F)CC/C(C)=C\[C@@H](C)[C@@H]1O (stereo partly shown) [Compound 71, Macrocyclic CF3-Alcohol]
- ability to inhibit tumor cell migration [5]: displays the same activity profile as macroketone 60

Structure (SMILES): CO[C@H]1C=CCCCCC(=O)O[C@@H](C(C)C)/C(C)=C\[C@@H](C)[C@@H]1O
- ring closure, yield of all isomers ([4]; from C=CCCCCC(=O)O[C@H](/C(C)=C\[C@@H](C)[C@H](O[Si](C)(C)C(C)(C)C)[C@H](C=C)OC)C(C)C, Grubbs-II catalyst, 0.53 mM, 110.0 °C, 2 steps): 65%

Structure (SMILES): CO[C@H]1/C=C/CCCCC(=NO)CC/C(C)=C\[C@@H](C)[C@@H]1O [Compound 72, Macrooxime]
- ability to inhibit tumor cell migration [5]: rather weak migration inhibitors

Structure (SMILES): CO[C@H]1/C=C/CCCCC(=O)OC/C(C)=C\[C@@H](C)C1=O [Compound 50, Oxidized Macrolactone]
- inhibitory activity on tumor cell migration [2]: reduced by roughly an order of magnitude

Structure (SMILES): COC1C=CCCCCC(=O)OC(C(C)C)C(C)=CC(C)C1O [Compound 65, (S)-Isopropyl Macrolactone]
- metabolic stability in mouse blood plasma ([1]; mouse, plasma): no sign of degradation
- inhibitory activity on tumor cell migration [2]: only very weak effects on tumor cell migration

Structure (SMILES): CO[C@H]1C=CCCCCC(=O)NC/C(C)=C\[C@@H](C)[C@@H]1O[Si](C)(C)C(C)(C)C
- ring closure, yield of all isomers ([4]; from C=CCCCCC(=O)NC/C(C)=C\[C@@H](C)[C@H](O[Si](C)(C)C(C)(C)C)[C@H](C=C)OC, Grubbs II, 0.709 mM, 111.0 °C): 60%

Structure (SMILES): CO[C@H]1C=CCCCCC(=O)OC/C(C)=C\[C@@H](C)[C@@H]1O[Si](C)(C)C(C)(C)C
- ring closure, yield of all isomers ([4]; from C=CCCCCC(=O)OC/C(C)=C\[C@@H](C)[C@H](O[Si](C)(C)C(C)(C)C)[C@H](C=C)OC, Grubbs II, 0.498 mM, 111.0 °C): 76%
